The values below come from PMC13095408, “DBeQ derivative targets vacuolar protein sorting 4 functions in cancer cells and suppresses tumor growth in mice” (The Journal of Pharmacology and Experimental Therapeutics, 2025).

The subject of series [1] is GFP-CHMP4B- and mCherry-LGALS3-expressing U2OS cells. Briefly: mCherry-LGALS3 accumulation, endolysosomal membrane integrity (HCM). The format is cell-based. The following applies: 2 μM 4-107, starved, 2 hours. The method, then: Live-cell fluorescence imaging and analysis were performed using the CellInsight CX7 LZR high-content screening platform with Onstage Incubator (Thermo Scientific; 37 °C, 5% CO2, 20% O2, 60% humidity). SM was acclimatized at 37 °C and 5% CO2 for at least 30 minutes prior to all experiments for pH equilibration. For cell-based VPS4i screen, U2OS cells stably expressing N-terminal GFP-tagged charged multivesicular body protein 4B (GFP-CHMP4B) were cultured in black clear-bottom 96-well plates (Corning; 3603) at a density of 6000 cells/well. Cells were stained with Hoechst 33342 (1:1000) for 15 minutes at 37 °C, rinsed with 1× Dulbecco's phosphate-buffered saline (DPBS), and treated with SM containing 0.1% DMSO or 1 μM test compounds. Plates were then scanned using the 20× objective for 1 hour with ≥100 cells/well across 6 fields/well. Fluorescence intensity of GFP-CHMP4B foci per cell for each compound was normalized to that of 4-107. For all other assays, the cells were cultured overnight in black glass-bottom 96-well plates (Cellvis; P96-1.5H-N) then stained, rinsed, and treated with SM containing the indicated compounds (0.1% DMSO or 0.1% DMSO/0.1% ethanol [vehicle] final). Plates were scanned using the 20× NA .70 objective at the indicated intervals with ≥ 300 cells/well across 3 fields/well. […]

A further series is described as follows: Acute dose MTD study. To be noted: both sexes, C57BL/6J, mouse, in vivo, ip, fixed daily doses 5, 10, 15, 20 mg/kg, B6 mice; read-out: acute dose MTD (tolerated dose). The method, then:
All animal studies were performed in accordance with the guidelines of the Institutional Animal Care and Use Committee at the Penn State College of Medicine (IACUC # PRAMS201145989). To determine the maximum tolerated dose (MTD) of 4-107, escalating and acute dose studies were performed. The escalating MTD study used an intra-animal design where each mouse received daily doses of 4-107 that increased 50% each day from a starting dose of 5 mg/kg. Six female C57BL/6J (B6) (The Jackson Laboratory; 000664) were administered 4-107 either orally via oral gavage or via intraperitoneal injection with 3 mice per group. The acute MTD study had groups of mice receive daily consistent doses of 4-107 i.p. Here, B6 mice were administered 4-107 at either 5 (n = 4; 2 males [M], 2 females [F]), 10 (n = 4; 2 M, 2 F), 15 (n = 5; all M), or 20 mg/kg (n = 5; all M). In both studies, 4-107 dissolved in DMSO was mixed into 30% propylene glycol, 5% Tween 80, and 65% of 5% dextrose in water (PTD [vehicle]) with a final DMSO concentration of ≤ 3%. […] BCS was determined by posture and prominence of skeletal features upon visual inspection and palpation, where BCS < 2 indicated a hunched posture and emaciation. […] The MTD was determined as the highest dose of 4-107 administered without mice reaching the toxicity endpoints.

As for `COc1cccc2c(NCc3ccccc3)nc(NCc3ccccc3)nc12` [Compound 4-107, N^2,N^4-dibenzyl-8-methoxyquinazoline-2,4-diamine], the “mCherry-LGALS3 signals (endolysosomal membrane integrity)” value in series [1] is “increase in mCherry-LGALS3 signals”. In addition, the MTD in “Acute dose MTD study” amounted to 5 mg/kg.
